Where “and” joins values, the source holds several entries; their conditions need not be identical. Equal entries are not always repeated.
Test system: wounded mouse skin
Assay: Wound-healing effect in wounded skin mouse model (topical, once daily for 10 days)
Type: in vivo
[1] = group mean (X, 5 mice), topical x10, dose/mouse: extract 50 μg, fraction 3 10 μg, saponin I 5 μg, CGS-21680 10 μg
[2] = group mean (X, 5 mice), topical x10, dose/mouse: extract 50 μg, fraction 3 10 μg, saponin I 5 μg, CGS-21680 10 μg, * P<0.05 vs vehicle
[3] = individual mouse (N 1-5), same doses as group means

Description: Thus prepared test materials(20 μl) were topically applied on the wounded mouse skin, once daily for 10 consecutive days.
As a positive control drug, CGS-21680 (Tocris, USA) was prepared same as the above, and topically administered at a dosage of 10 μg/20 μl, once daily for 10 consecutive days.
Twenty-five male mice of CD-1 origin having 24 g±2 g of body weight were divided into 5 groups. The mice were put into separate cages. After anesthesia with hexobarbital (90 mg/kg, IP), the furs on the shoulders and the backs of the mice were shaved. A portion of skin including a muscle layer beneath the skin and a tissue attached thereof was cut off by using a sharp punch (ID12 mm). After being wounded on the skin, the mice were administered topically with the test materials of Momordicae semen extract, Momordica saponin I fraction 3, Momordica saponin I, and CGS-21680 were, respectively, at a concentration of 50, 10, 5, and 10 μg/20 μl, respectively, once daily for 10 consecutive days.
The area of wounded skin detected on a transparent plastic sheet was measured using Image-ProPlus (Media Cybernetics, Version 4.5.0.29) on day 1, 3, 5, 7, 9, and 11. […] The Dunnett's test was performed after one-way analysis of variance (one-way ANOVA), in order for the comparison between the treated group and the vehicle group at each measuring point. The difference was of statistical significance at P<0.05.

Row | SMILES | Wound Closure Rate (%) Day 1 [1] [%] | Wound Closure Rate (%) Day 3 [2] | Wound Closure Rate (%) Day 5 [2] | Wound Closure Rate (%) Day 7 [2] | Wound Closure Rate (%) Day 9 [2] | Wound Closure Rate (%) Day 11 [2] | CT50 (time required for wound closure) [2] | Wound Closure Rate (%) Day 1 [3] [%] | Wound Closure Rate (%) Day 3 [3] | Wound Closure Rate (%) Day 5 [3] | Wound Closure Rate (%) Day 7 [3] | Wound Closure Rate (%) Day 9 [3] | Wound Closure Rate (%) Day 11 [3] | CT50 (time required for wound closure) [3] | wound-healing effect (overall statement on Table 2 and FIG. 1)
1 | CCNC(=O)[C@H]1O[C@@H](n2cnc3c(N)nc(NCCc4ccc(CCC(=O)O)cc4)nc32)[C@H](O)[C@@H]1O [CGS-21680, reference compound] | 0.0 | *45.1% | *58.5% | *68.5% | *79.0% | *83.1% | *5.2 Days | 0.0 | 46.7% (2×) and 36.0% and 54.4% and 41.6% | 62.5% and 59.3% and 55.5% and 59.6% and 55.8% | 71.2% and 66.5% and 62.7% and 71.8% and 70.3% | 79.9% and 74.7% and 79.7% and 81.6% and 79.2% | 85.6% and 84.6% and 78.3% and 82.9% and 84.3% | 5.0 days and 5.6 days and 5.2 days and 5.1 days and 5.3 days | –
2 | CC1OC(OC2C(O)C(C(=O)O)OC(OC3CCC4(C)C(CCC5(C)C4CC=C4C6CC(C)(C)CCC6(C(=O)OC6OC(C)C(O)C(O)C6OC6OC(C)C(OC7OCC(O)C(O)C7O)C(OC7OC(CO)C(O)C(OC8OCC(O)C(O)C8O)C7O)C6O)CCC45C)C3(C)C=O)C2OC2OC(CO)C(O)C(O)C2O)C(O)C(O)C1O [Momordica Saponin I, 3-O-beta-D-Galactopyranosyl (1->2)-[alpha-L-rhamnopyranosyl (1->3)]-beta-D-glucuronopyranosido-28-O-beta-D-xylopyranosyl (1->3)-beta-D-glucopyranosyl (1->3)-[beta-D-xylopyranosyl (1->4)]-alpha-L-rhamnopyranosyl (1->2)-beta-D-fucopyranosyl gypsogenin] | 0.0 | *40.1% | *53.0% | *66.1% | *77.3% | *83.4% | *5.6 Days | 0.0 | 32.9% and 45.4% (2×) and 31.2% and 45.6% | 54.4% and 54.8% and 48.8% and 51.4% and 55.5% | 69.9% and 71.5% and 58.8% and 62.9% and 67.5% | 80.8% and 80.4% and 69.4% and 75.6% and 80.5% | 85.0% and 88.3% and 78.1% and 84.6% and 81.1% | 5.5 days and 5.2 days and 6.3 days and 5.6 days and 5.3 days | superior wound-healing effects

— patent US20100298251A1, “WOUND-HEALING AGENT CONTAINING MOMORDICAE SEMEN EXTRACT” (priority 2007, published 2010)
